Data taken from patent publication US9326511B2, “Methods of inhibiting microbial biofilms” (priority 2008, dated 2016).
In brackets after ≈: the same amount, converted by molar mass. Entries after “also recorded” stand apart in the source; their conditions may differ. Read-outs that look alike come from different tables or passages of the source.

Assays:
Format in all cases: cell-based, Staphylococcus aureus
[1] = tested on: S. aureus SH1000; experiment: Planktonic MIC by broth microdilution (BSAC guidelines)
Experimental: (§1) Methods: MICs were determined for planktonic cultures by broth microdilution according to British Society for Antimicrobial Chemotherapy (BSAC) guidelines. Biofilm MICs (bMIC) and minimum biofilm eradication concentrations (MBECs) were determined using the Calgary biofilm device. The effect of Compound 10 on the viability of cold culture cells was determined by growing S. aureus SH1000 to early exponential phase at 37° C. and resuspending the cells in pre-chilled media, where they were maintained in the presence and absence of Compound 10 and control agents. The effect of Compound 10 on slow growing cells expressing the stringent response was also determined by growing cultures to early log phase and the stringent response induced by the addition of the isoleucyl-tRNA synthetase inhibitor mupirocin. Compound 10 and control agents were then added and samples recovered for viable cell determinations.

[2] = tested on: S. aureus SH1000 biofilms; experiment: Biofilm MIC and minimum biofilm eradication concentration, Calgary Biofilm Device; details: for bMIC / MIC: biofilm MIC; for MBEC: minimum biofilm eradication concentration; for MIC: Staphylococcus aureus, SH1000BIOFILMS, read-out: bMIC
Experimental: as §1
Biofilm MICs and minimum biofilm eradication concentrations (MBEC) were determined in the Calgary Biofilm Device (Nunc Inc, Roskilde, Denmark) as described by Miller et al., 2005. This involves the following steps. Aliquots (200 μL) of exponential phase cultures of strain SH1000 were added to each well of a 96-well microtitre tray. The lid assembly, which has 96 polystyrene pegs corresponding to each well, was then replaced and the system incubated for 24 hours at 37° C. on a rocking platform. Following this a biofilm of approximately 10^7 cfu matured on each peg. The lid was then washed twice in phosphate-buffered saline (PBS) to remove residual planktonic growth and then placed into a microtitre tray with fresh media containing doubling dilutions of the test antibiotic. The system was then incubated for 24 hours at 37° C. on a rocking platform. The MIC was defined as the lowest concentration of antibiotic completely inhibiting visible growth after this incubation. After the MIC was recorded, the lid assembly was again washed twice in PBS to remove planktonic cells and remaining antibiotic and then placed into fresh drug-free media. The system was incubated for a further 24 hours and the MBEC was defined as the lowest concentration of antibiotic completely inhibiting the re-establishment of planktonic growth.

[3] = tested on: stringent S. aureus SH1000 cultures; experiment: Time-kill against cultures expressing the stringent response (induced with mupirocin); details: stringent response induced with mupirocin, agents at 4×MIC
Experimental: as §1
When nutrients become limiting for growth bacteria adjust their metabolism from one that supports growth to one that provides for long survival in the absence of nutrients. In many bacteria a key facilitator of this physiological switch, known as the stringent response, is accumulation of guanosine […] and pentaphosphate (Traxler et al., 2008). The antibiotic mupirocin is a strong inducer of the stringent response in S. aureus and effectively causes starvation of charged isoleucyl tRNA by potent inhibition of isoleucy ItRNA synthetase (IRS) (Oliva et al., 2003). The activity of XF drugs against S. aureus SH1000 prevented from growing by the addition of mupirocin (Oliva et al., 2003), was therefore examined (FIG. 10). As an alternative method for arresting growth, bacteria were suspended in cold growth medium (Mascio et al., 2007) and the bactericidal activity of XF drugs was also determined under these conditions (FIG. 11).
(§2) The anti-staphylococcal activities of Compound 10, Compound 12 and a range of comparator agents against slow-growing cultures of Staphylococcus aureus were studied using standard time-kill methodology (Oliva et al. 2003, Hobbs et al. 2008). Staphylococcus aureus SH1000 cultures were grown to early exponential phase (OD600 nm of 0.2) in Mueller-Hinton broth (MHB) before being exposed to antibacterial agents at 4×MIC. An untreated culture served as the negative control. The experiments were undertaken in triplicate.
The antibiotic mupirocin is a strong inducer of the stringent response in S. aureus and causes starvation of charged isoleucyl tRNA by potent inhibition of isoleucyl tRNA synthetase (IRS) (Oliva et al. 2003, Cassels et al. 1995) Stringency was induced in SH1000 cultures by adding mupirocin (4 mg/L) to cells in the early exponential growth phase (OD600 nm of 0.2) (Oliva et al. 2003, Cassels et al. 1995). Cultures were incubated with mupirocin for 30 minutes before sampling began. Cultures were maintained at 37° C., and samples were taken at 30 minute intervals for 300 minutes, serially diluted in phosphate buffered saline (PBS) and diluted culture was spread on Mueller-Hinton agar and was incubated at 37° C. for 18-24 hours before the number of CFU were counted.

[4] = tested on: S. aureus SH1000 cold cultures; experiment: Time-kill against cold cultures (4° C.); details: cold culture held at 4° C. for 5 hours, agents at 4×MIC
Experimental: as §1
The effect of XF drugs on the viability of cold culture cells was determined by growing S. aureus SH1000 to early exponential phase at 37° C., harvesting the cells by centrifugation (5,000×g, 10 min.) and resuspending them in pre-chilled media where they were maintained in the presence and absence of XF drugs and control agents for 5 hours. […] (FIG. 11).
as §2
Cold cultures were prepared by growing SH1000 cells to early exponential phase (OD600 nm of 0.2) at 37° C. Cultures were then centrifuged and the cell pellet was resuspended in MHB pre-chilled to 4° C. The killing kinetics of antimicrobial agents were studied as described in the section above, with the exception that cultures were maintained at 4° C. over the 5 hour sampling period.

[5] = planktonic S. aureus SH1000 (Table 5)
[6] = planktonic S. aureus SH1000 (Table 6)
[7] = S. aureus SH1000, Calgary Biofilm Device, 24 hours (Table 6)
[8] = S. aureus SH1000, Calgary device (Example H)
[9] = S. aureus SH1000, Calgary Biofilm Device (Table 6)
[10] = Staphylococcus aureus, planktonic S. aureus SH1000 (Table 5), read-out: MIC
[11] = 24 h, S. aureus SH1000, Calgary Biofilm Device, 24 hours (Table 6)

| Compound | MIC [1, 5] [µg/mL] | MIC [1, 6] [µg/mL] | bMIC [2, 7] [µg/mL] | bMIC [2, 8] [µg/mL] | MBEC [2, 9] [µg/mL] | MBEC [2, 8] [µg/mL] | MIC [1, 10] [µg/mL] | MIC [2, 11] [µg/mL] | MIC [2, 8] [µg/mL] | viability / bactericidal activity in time-kill (in words) [3] | viability / bactericidal activity in time-kill (in words) [4] |
| --- | --- | --- | --- | --- | --- | --- | --- | --- | --- | --- | --- |
| CCCCCCCCCCCCCCCC[N+](C)(C)C.[Br-] [CTAB] | 2 | 2 | 2 | 2 | >256 | >256 | – | – | – | – | – |
| C[C@@H](O)[C@H]1C(=O)N2C(C(=O)O)=C(S[C@@H]3CN[C@H](C(=O)N(C)C)C3)[C@H](C)[C@H]12 [Meropenem] | – | 0.5 (≈ 1.3 µM) | – | – | – | – | 0.5 (≈ 1.3 µM) | 0.5 (≈ 1.3 µM) | 0.5 (≈ 1.3 µM) | – | – |
| Cc1onc(-c2c(F)cccc2Cl)c1C(=O)N[C@@H]1C(=O)N2[C@@H]1SC(C)(C)[C@@H]2C(=O)O [Flucloxacillin] | – | 0.125 (≈ 0.275 µM) | – | – | – | – | 0.125 (≈ 0.275 µM) | 4 (≈ 8.81 µM) | 4 (≈ 8.81 µM) | – | – |
| [H]/N=C(\N/C(=N/[H])NCCCCCCNC(=N)NC(=N)Nc1ccc(Cl)cc1)Nc1ccc(Cl)cc1 [Chlorhexidine] | – | 2 (≈ 3.96 µM) | – | – | – | – | 2 (≈ 3.96 µM) | 1 (≈ 1.98 µM) | 1 (≈ 1.98 µM) | – | – |
| CC(=O)O[C@H]1C[C@@]2(C)[C@@H](C[C@@H](O)[C@H]3[C@@]4(C)CC[C@@H](O)[C@@H](C)[C@@H]4CC[C@@]32C)/C1=C(\CCC=C(C)C)C(=O)O [Fusidic acid] | – | 0.25 (≈ 0.484 µM) | – | – | – | – | 0.25 (≈ 0.484 µM) | 0.5 (≈ 0.968 µM) | 0.5 (≈ 0.968 µM) | – | – |
| O=C(O)c1cn(C2CC2)c2cc(N3CCNCC3)c(F)cc2c1=O [Ciprofloxacin] | – | 2 (≈ 6.04 µM) | – | – | – | – | 2 (≈ 6.04 µM) | 4 (≈ 12.1 µM) | 4 (≈ 12.1 µM) | – | – |
| CO/N=C(\C(=O)N[C@@H]1C(=O)N2C(C(=O)O)=C(COC(C)=O)CS[C@H]12)c1csc(N)n1 [Cefotaxime] | – | 0.5 (≈ 1.1 µM) | – | – | – | – | 0.5 (≈ 1.1 µM) | 4 (≈ 8.78 µM) | 4 (≈ 8.78 µM) | – | – |
| CCCCCCCCCC(=O)N[C@@H](Cc1c[nH]c2ccccc12)C(=O)N[C@H](CC(N)=O)C(=O)N[C@@H](CC(=O)O)C(=O)N[C@@H]1C(=O)NCC(=O)N[C@@H](CCCN)C(=O)N[C@@H](CC(=O)O)C(=O)N[C@H](C)C(=O)N[C@@H](CC(=O)O)C(=O)NCC(=O)N[C@H](CO)C(=O)N[C@@H]([C@H](C)CC(=O)O)C(=O)N[C@@H](CC(=O)c2ccccc2N)C(=O)O[C@@H]1C [Daptomycin] | – | 1 (≈ 0.617 µM) | – | – | – | – | 1 (≈ 0.617 µM) | 2 (≈ 1.23 µM) | 2 (≈ 1.23 µM) | no loss of viability | no loss of viability; also recorded: retained some bactericidal activity; also recorded: retained limited bactericidal activity |
| CO[C@H]1/C=C/O[C@@]2(C)Oc3c(C)c(O)c4c(O)c(c(/C=N/N5CCN(C)CC5)c(O)c4c3C2=O)NC(=O)/C(C)=C\C=C\[C@H](C)[C@H](O)[C@@H](C)[C@@H](O)[C@@H](C)[C@H](OC(C)=O)[C@@H]1C [Rifampin] | – | 0.008 (≈ 0.00972 µM) | – | – | – | – | 0.008 (≈ 0.00972 µM) | 0.02 (≈ 0.0243 µM) | 0.03 (≈ 0.0365 µM) | – | – |
| C/C(=C\C(=O)OCCCCCCCCC(=O)O)C[C@@H]1OC[C@H](C[C@@H]2O[C@H]2[C@@H](C)[C@H](C)O)[C@@H](O)[C@H]1O [Mupirocin] | – | 0.125 (≈ 0.25 µM) | – | – | – | – | 0.125 (≈ 0.25 µM) | 0.25 (≈ 0.499 µM) | 0.25 (≈ 0.499 µM) | – | – |
| CN(C)[C@@H]1C(O)=C(C(N)=O)C(=O)[C@@]2(O)C(O)=C3C(=O)c4c(O)cccc4[C@@](C)(O)[C@H]3C[C@@H]12 [Tetracycline] | – | 1 (≈ 2.25 µM) | – | – | – | – | 1 (≈ 2.25 µM) | 0.5 (≈ 1.13 µM) | 0.5 (≈ 1.13 µM) | – | – |
| Gentamycin | 0.5 | 0.5 | 1 | 1 | >256 | >256 | – | – | – | – | – |
